“And” between values parts separate entries of the source, which are not always exact repeats. Equal entries are not always repeated.
Molecular target: T1, Kir6.2-GFP (no SUR1) (Homo sapiens, UniProt Q14654)
T1 construct: ANAP labelling is specific and only full-length Kir6.2 is expressed at the cell membrane; expressed in transfected cells; host or cells: HEK-293T
T1 sequence (Q14654 1-390): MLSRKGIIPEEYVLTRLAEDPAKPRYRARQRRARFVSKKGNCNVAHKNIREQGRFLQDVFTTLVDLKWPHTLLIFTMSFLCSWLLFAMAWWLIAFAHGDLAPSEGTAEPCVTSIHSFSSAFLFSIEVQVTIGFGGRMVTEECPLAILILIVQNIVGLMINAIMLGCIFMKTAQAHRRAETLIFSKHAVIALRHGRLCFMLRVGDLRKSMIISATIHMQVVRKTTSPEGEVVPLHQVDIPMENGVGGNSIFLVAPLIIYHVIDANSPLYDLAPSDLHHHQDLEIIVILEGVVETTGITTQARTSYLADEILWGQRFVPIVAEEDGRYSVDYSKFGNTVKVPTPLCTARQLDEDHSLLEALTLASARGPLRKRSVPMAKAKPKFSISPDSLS
Assay: FRET (ANAP quenching) nucleotide binding in unroofed membranes
From the text: To measure nucleotide binding, cells transfected with Kir6.2*-GFP + SUR1 were briefly sonicated, leaving behind unroofed plasma membrane fragments ([Heuser, 2000]; [Zagotta et al., 2016]; [Puljung et al., 2019]) containing ANAP-labelled KATP channels with the intracellular nucleotide-binding sites exposed to the bath solution. The sample was excited with a 385 nm LED and emitted fluorescence from the membrane fragments was passed through a spectrometer, allowing us to separate ANAP, GFP, and TNP-ATP fluorescence by peak wavelength (Figure 1E,F). As expected from FRET, increasing the concentration of TNP-ATP caused a decrement in the ANAP peak at 472 nm and a concomitant increase in the TNP-ATP peak at 561 nm (Figure 1F). We used the quenching of the ANAP peak as a direct measure of TNP-ATP binding as this signal was specific to KATP. In contrast, the peak TNP-ATP fluorescence may include contributions from both specific and non-specific nucleotide binding, as well as direct excitation of TNP-ATP in solution by the 385 nm excitation light. Due to the sharp cut-off of the GFP emission spectrum at shorter wavelengths, our measurements of peak ANAP fluorescence were unaffected by the presence of the GFP tag on Kir6.2.
SUR1 plays a complex role in the regulation of Kir6.2. It increases the Popen of the channel and allows for the activation of the channel by Mg-nucleotides ([Nichols et al., 1996]; [Tucker et al., 1997]; [Babenko and Bryan, 2003]; [Chan, 2003]; [Fang et al., 2006]). However, it also increases the sensitivity of Kir6.2 to nucleotide inhibition ([Babenko and Bryan, 2003]; [Chan, 2003]; [Fang et al., 2006]). To understand the effect of SUR1 on nucleotide inhibition of KATP, we expressed Kir6.2*-GFP in the absence of SUR1 in unroofed membranes and measured TNP-ATP binding (Figure 4—figure supplement 1A). […] Unfortunately, we were unable to achieve high enough expression of Kir6.2*-GFP alone to carry out PCF experiments in the absence of SUR1. […]
Epifluorescence imaging and spectroscopy were performed using a Nikon Eclipse TE2000-U microscope with a 60x water immersion objective (Plan Apo VC, NA = 1.2, Nikon; Kingston upon Thames, UK) or a 100x oil immersion objective (Nikon, Apo TIRF, NA = 1.49). […] Fluorescence spectra were collected by exciting ANAP as above but using a 400 nm long-pass emission filter (ThorLabs), then passing emitted light through an IsoPlane 160 Spectrometer (Princeton Instruments; Trenton, NJ) with a 300 grooves mm^-1 grating. […]
Unroofed membranes were prepared as described previously ([Heuser, 2000]; [Zagotta et al., 2016]; [Puljung et al., 2019]). […] Unroofed membrane fragments were nearly invisible in bright-field images and identified by their GFP and ANAP fluorescence. […]

Nc1ncnc2c1ncn2[C@@H]1O[C@H](COP(=O)(O)OP(=O)(O)OP(=O)(O)O)[C@H]2OC3(O[C@H]21)C([N+](=O)[O-])=CC(=[N+]([O-])[O-])C=C3[N+](=O)[O-] (stereo partly shown) [TNP-ATP, trinitrophenyl-ATP]
increase in apparent EC50 compared to the same construct in the presence of SUR1: approximately 1.5 fold | h (Hill coefficient) fluorescence quenching (no SUR1, Hill fit): 0.83 | Emax (no SUR1, Hill fit, fraction, read-out: Emax fluorescence quenching): 92% | EC50 (no SUR1, Hill fit, n = 14, read-out: EC50 fluorescence quenching): 37.6 µM and 38 µM

— paper PMC7004565, “Nucleotide inhibition of the pancreatic ATP-sensitive K^+ channel explored with patch-clamp fluorometry” (eLife, 2020)
